In data set [1] the test system is ADP-induced platelet aggregation. The data set can be described thus: ADP-induced platelet aggregation (antiplatelet aggregation activity). The data set is classed as cell-based. To be noted: platelet aggregation induced by ADP (10 μM); mean ± SD, n = 5. As for the experimental part:
(§1) The antiplatelet aggregation activity of the target compounds was evaluated against ADP- and AA-induced platelet aggregation. In other words, different concentrations of the target compound solution and POC ([Zhang J. et al., 2021]) (10 μL) were added to the plasma at 37°C for 5 min. Then, platelets were stimulated with ADP (10 μM, 30 μL) or AA (1 mM, 30 μL). Variations in absorbance were monitored for 5 min in order to measure platelet aggregation ([Daron et al., 2022]). The platelet aggregation inhibition rate (AIR) was calculated according to the following formula: AIR = (rate of aggregation (control)−rate of aggregation (compounds))/rate of aggregation (control) × 100%

The test system of data set [2] is AA-induced platelet aggregation. The data set can be described thus: AA-induced platelet aggregation (antiplatelet aggregation activity). Format: cell-based. To be noted: platelet aggregation induced by AA (1 μM); mean ± SD, n = 5. As for the experimental part: as §1, with “Then, platelets were stimulated with ADP (10 μM, 30 μL) or AA (1 mM, 30 μL).” left out
On the set-up of data set [3]: method as in Zhang J. et al., 2021. To be noted: found in the authors' previous study; ref Zhang J. et al., 2021; cited from earlier work.
Data set [4] can be described thus: Pharmacokinetic study after single i.g. or i.v. administration to rats. The data set is classed as in vivo. To be noted: for AUC(0-t) / AUC(0-∞) / half-life / MRT last: single 6.4 mg/kg, mean ± SD; for AUC(0-t) / AUC(0-∞) / half-life: n = 6; for MRT last: n = 6, read-out: MRT (0-t) (converted). The procedure:
Six rats were given compound 8b (6.4 mg/kg) ([Zhang J. et al., 2021]) by intravenous injection (i.v.) and intragastric administration (i.g.), respectively. The animal experiment protocol was performed according to the guidelines for animal experiments and supervised by the Experimental Animal Ethics Committee of Anhui University of Chinese Medicine (AHUCM-rats-2019001). Then, approximately 1.0 mL of blood was taken from the orbital venous plexus of the rats and placed into an EP-containing heparin at predetermined time points of 3, 5, 10, 20, 30, 45, 60, 120, and 240 min after dosing. The blood sample was centrifuged for 15 min at 3,500 rpm to obtain plasma. For plasma preparation, 180 μL of plasma was mixed with 20 μL of glibenclamide as an internal standard and 900 μL of acetonitrile. The mixture was then centrifuged at 12,000 rpm for 10 min. After centrifugation, 800 μL of the supernatant was dried using a vacuum freeze dryer. The dried sample was then reconstituted with 200 μL of acetonitrile for LC/MS analysis. The analytical conditions for the plasma samples are as follows: a Hypersil GOLD C8 HPLC Column (2.1 mm × 100 mm, 1.9μm; Thermo Fisher Scientific, United States) was used for chromatographic separation. The column temperature was maintained at 30°C, and the sample chamber temperature was maintained at 4°C. A gradient elution with a flow rate of 0.2 mL/min (phase A: 0.1% formic acid, phase B: methanol) was carried out from 45% B to 80% within 2.5 min, then from […] to 90% within 1 min, and maintained at 90% for 1 min; subsequently, it was decreased from 90% to 45% in 30 s and maintained for 1 min. Multiple-reaction monitoring (MRM) was quoted as the acquisition mode of mass spectrometry in a positive ionization mode. The mass spectrometry detector was equipped with an electrospray ionization (ESI) source. The optimal MS parameters were as follows: the ion source temperature was set at 400°C, the vaporization temperature was set at 500°C, the electrospray voltage was set to 5500 V, and the capillary voltage was set to 3600 V. The ion pair of 8b is m/z 517.0 and 281.4, and the declustering voltage is 120 eV; the collision energy is 40 eV. Similarly, the ion pair of glibenclamide is m/z 494.1 and 169.0, the declustering voltage is 65 eV, and the collision energy is 50 eV.

The subject of a further data set is PC12 cells. The data set can be described thus: Viability of PC12 cells, CCK-8 assay. The data set is classed as cell-based, rat. To be noted: 24 h. The procedure:
(§2) For the cell culture conditions, rat pheochromocytoma PC12 cells (ATCC, Manassas, VA, United States) were cultured in RPMI 1640 culture medium with 1% penicillin and streptomycin and 10% fetal bovine serum (FBS) (Gibco, Waltham, MA, United States) at 37°C with 5% CO2.
Cell viability was assessed using a CCK-8 assay. The PC12 cells were seeded in a 96-well plate at a density of 1 × 10^5 cells per well. After incubation for 24 h, the cells were treated with various concentrations of the compound. After 24 h of re-incubation, the cell viability was evaluated using a 10% CCK-8 solution. The absorbance value was determined at 450 nm.
For orientation: Formazan colour is commonly taken as a measure of viable cells.

In a further data set the test system is OGD/R PC12 cells. The experiment in a line: Protective effect on OGD/R PC12 cells (oxygen-glucose deprivation), CCK-8. The data set is classed as cell-based. To be noted: Rattus norvegicus, mean ± SD, n = 5, read-out: Cell viability (%). The procedure: as §2
For oxygen-glucose deprivation of PC12 cell activity, the procedure was conducted as follows ([Wei et al., 2022]): the cells were cultured in a 96-well plate for 24 h. Then, the culture medium was replaced with oxygen–glucose-free RPMI 1640 and placed in an incubator with 5% CO2 and 95% N2 for 2 h. Once the oxygen-free process was completed, the culture medium was changed back to RPMI 1640 and maintained at 37°C with 5% CO2 for an additional 24 h. Cell viability was then assessed using the CCK-8 assay.

“And” between values parts separate entries of the source, which are not always exact repeats. Identical values can stand only once. Like-named read-outs stand apart in the source and are kept apart here.

One may read the IC50 as the midpoint of a concentration-inhibition curve. The AUC(0-t) is exposure summed from dosing to a finite time, without extrapolation to infinity. One may read the half-life as how long it takes for the measured level to halve. A low value points to fast loss. Broadly, the viability is the share of living cells, or the viability signal relative to a control.

Consider `COc1ccc(C(C)=O)c(OCCCN2CCN(C(=O)C=Cc3ccc(Cn4ccnc4)cc3)CC2)c1` [PNC2], for which the IC50 was over 1000 µM in data set [1] and 462 ± 28.7 µM in data set [2].
The corresponding values for `COc1ccc(C(C)=O)c(OCCCCCN2CCN(C(=O)C=Cc3ccc(Cn4ccnc4)cc3)CC2)c1` [PNC4] are over 1000 µM and 692 ± 45.7 µM.
On to `COc1ccc(C(C)=O)c(OCCCNC(=O)C=Cc2ccc(Cn3ccnc3)cc2)c1` [PNC5, 3-(4-((1H-imidazol-1-yl)methyl)phenyl)-N-(3-(2-acetyl-5-metho-xyphenoxy)propyl)acrylamide], for which the values for the IC50 in data set [1] and in data set [2] were over 1000 µM and 234 ± 16.6 µM, respectively.
In the case of `COc1ccc(C(C)=O)c(OC(=O)C=Cc2ccc(Cn3ccnc3)cc2)c1` [POC, reference compound], the IC50 was 842 ± 53.3 µM in data set [1] and 349 ± 16 µM in data set [2]. For the same compound, in data set [3], the stability result is reported as “unstable”.
In data set [1], `COc1ccc(C(C)=O)c(OCCCCN2CCN(C(=O)C=Cc3ccc(Cn4ccnc4)cc3)CC2)c1` [PNC3] showed an IC50 of 485 ± 31.1 µM. The same compound registered an IC50 in data set [2] of 74.7 ± 4.86 µM. Also, in data set [4] (i.g.), the “time remained detectable in the blood” value was “up to 8 h”, the “AUC(0-t)” value is 6148.338 ± 2222.737 µg·min/L and the “AUC(0-∞)” value is 8346.219 ± 3,719.156 μg/L*min. Also, in data set [4] (i.g. longer than i.v.), the “MRT i.g. relative to i.v.” value worked out at 2.11 times and the “t1/2 i.g. relative to i.v.” value was 2.33 times. In data set [4] (i.v.), the “time within which peak concentration was visible” value is on record as at most 6 h, the “AUC(0-t)” value is given as 18,552.773 ± 7438.264 μg/L*min and the “AUC(0-∞)” value is reported as 19,250.669 ± 7673.11 μg/L*min. Further, in data set [4] (rat, plasma, iv), the half-life was found to be 2.08 ± 0.295 h and the MRT last was 2.5 h. The Tmax in data set [4] (rat, plasma, po, 6.4 mg/kg, i.g., read-out: time of peak concentration in the blood) was 1 h. For the same compound, in data set [4] (rat, plasma, po, i.g.), the half-life is 4.85 ± 1.74 h and the MRT last is 5.28 h. In addition, the “AUC by i.g. relative to i.v.” value in data set [4] (ratio of AUC(0-t) i.g. vs i.v., 6.4 mg/kg) is 33.3% and 33.1%. In addition, the “impact on cell viability” value in the data set on PC12 cells (0–0.16 μM) is listed as “no impact on cell viability”. In addition, in the data set with PC12 cells (0.08 μM), the cell survival rate was found to be 97.52%. For the same compound, in the data set on PC12 cells (concentration exceeded 0.16 μM), the cell survival rate was determined as 94.03%. The viability at 0.02 µM in the data set on OGD/R PC12 cells (PC-12, 0.02 μM) was 50.5 ± 2.95%. Moreover, in the data set with OGD/R PC12 cells (PC-12, 0.04 μM), the viability at 0.04 µM amounted to 54.2 ± 2.68%. Besides, the viability at 0.08 µM in the data set on OGD/R PC12 cells (PC-12, 0.08 μM) is 62.3 ± 3.14%.
In the case of `O=C(O)/C=C/c1ccc(Cn2ccnc2)cc1` [Ozagrel, (E)-sodium 4-(1-imidazolomethyl) cinnamate], the IC50 was over 1000 µM in data set [1] and 52.5 ± 3.29 µM in data set [2].

Source of the values: publication PMC10985144, “Design, synthesis, and evaluation of the novel ozagrel–paeonol codrug with antiplatelet aggregation activities as a potent anti-stroke therapeutic agent” (Frontiers in Pharmacology, 2024).
